Where a name gives a salt, the structure may show the parent alone.
Tests used:
Rattus norvegicus [1] = assay: Toxicity in CFY Sprague-Dawley rat assessed as body weight gain at 0.25% dietary level administered for 7 days relative to control; type: organism-based; details: in vivo, po, 168 h
Rattus norvegicus [2] = assay: Hypolipidemic activity in CFY Sprague-Dawley rat assessed as serum cholesterol level at 0.25% dietary level administered for 7 days relative to control; type: functional
Liver [3] = assay: Inhibition of cholesterol biosynthesis from [1-14C]acetate in rat liver slices at […] relative to control; type: functional
Rattus norvegicus [4] = assay: Toxicity in CFY Sprague-Dawley rat assessed as relative liver weight at 0.25% dietary level administered for 7 days relative to control; type: organism-based; details: in vivo, po, 168 h
Rattus norvegicus [5] = assay: Hypolipidemic activity in CFY Sprague-Dawley rat assessed as serum triglyceride level at 0.25% dietary level administered for 7 days relative to control; type: functional
Liver [6] = assay: Inhibition of fatty acid biosynthesis from [1-14C]acetate in rat liver slices at 5 X 10^-4 M relative to control; type: functional
Rattus norvegicus [7] = assay: Hypolipidemic activity in CFY Sprague-Dawley rat assessed as liver lipid per gm of liver at 0.25% dietary level administered for 7 days relative to control; type: functional
Rattus norvegicus [8] = assay: Toxicity in CFY Sprague-Dawley rat assessed as relative liver weight at 0.2% dietary level administered for 7 days relative to control; type: organism-based; details: in vivo, po, 168 h
Rattus norvegicus [9] = assay: Hypolipidemic activity in CFY Sprague-Dawley rat assessed as liver lipid per gm of liver at 1% dietary level administered for 7 days relative to control; type: functional
Rattus norvegicus [10] = assay: Hypolipidemic activity in CFY Sprague-Dawley rat assessed as liver lipid per gm of liver at 0.2% dietary level administered for 7 days relative to control; type: functional
Rattus norvegicus [11] = assay: Hypolipidemic activity in CFY Sprague-Dawley rat assessed as serum triglyceride level at 0.2% dietary level administered for 7 days relative to control; type: functional
Liver [12] = assay: Inhibition of fatty acid biosynthesis from [1-14C]acetate in rat liver slices at 1 X 10^-4 M relative to control; type: functional
Rattus norvegicus [13] = assay: Toxicity in CFY Sprague-Dawley rat assessed as body weight gain at 1% dietary level administered for 7 days relative to control; type: organism-based; details: in vivo, po, 168 h
Liver [14] = assay: Inhibition of cholesterol biosynthesis from [1-14C]acetate in rat liver slices at 1 X 10^-4 M relative to control; type: functional
Rattus norvegicus [15] = assay: Hypolipidemic activity in CFY Sprague-Dawley rat assessed as serum cholesterol level at 0.2% dietary level administered for 7 days relative to control; type: functional
Rattus norvegicus [16] = assay: Hypolipidemic activity in CFY Sprague-Dawley rat assessed as serum triglyceride level at 1% dietary level administered for 7 days relative to control; type: functional
Rattus norvegicus [17] = assay: Toxicity in CFY Sprague-Dawley rat assessed as relative liver weight at 1% dietary level administered for 7 days relative to control; type: organism-based; details: in vivo, po, 168 h
Rattus norvegicus [18] = assay: Hypolipidemic activity in CFY Sprague-Dawley rat assessed as serum cholesterol level at 1% dietary level administered for 7 days relative to control; type: functional
Rattus norvegicus [19] = assay: Toxicity in CFY Sprague-Dawley rat assessed as body weight gain at 0.2% dietary level administered for 7 days relative to control; type: organism-based; details: in vivo, po, 168 h

SMILES	Activity (Rattus norvegicus [1]) [%]	Activity (Rattus norvegicus [2]) [%]	inhibition at 500 µM (Liver [3]) [%]	Activity (Rattus norvegicus [4]) [%]	Activity (Rattus norvegicus [5]) [%]	inhibition at 500 µM (Liver [6]) [%]	Activity (Rattus norvegicus [7]) [%]	further results
CCOC(=O)c1ccc(OCc2cccc(C(F)(F)F)c2)cc1	12	-11	99	9	8	92	–	–
CCOC(=O)c1ccc(OCc2ccccc2OC)cc1	-10	-13	–	-2	-42	–	7	–
CCOC(=O)c1ccc(OCc2cccc([N+](=O)[O-])c2)cc1	-29	-7	54	-4	-28	47	–	–
CCOC(=O)c1ccc(OCc2ccccc2[N+](=O)[O-])cc1	8	-20	82	12	-21	69	3	–
CCOC(=O)Cc1ccc(OCc2ccccc2)cc1	-23	-18	93	28	-84	100	65	–
CCOC(=O)Cc1ccc(OCc2ccc(Cl)cc2)cc1	-10	-28	68	14	-91	59	8	–
CCOC(=O)Cc1ccc(OCc2ccccc2F)cc1	-20	-29	–	-22	-64	–	-1	–
CCOC(=O)Cc1ccc(OCc2cccc(F)c2)cc1	-17	-37	–	18	-71	–	9	–
CCOC(=O)Cc1ccc(OCc2ccc(F)cc2)cc1	3	-29	–	19	-71	–	11	–
CCOC(=O)Cc1cccc(OCc2ccccc2OC)c1	17	-16	–	34	-13	–	9	–
CCOC(=O)Cc1ccc(OCc2ccccc2OC)cc1	6	-24	–	4	-57	–	7	Activity (Rattus norvegicus [8]): 8%; Activity (Rattus norvegicus [9]): 20%; Activity (Rattus norvegicus [10]): 5%; Activity (Rattus norvegicus [11]): -64%; inhibition at 100 µM (Liver [12]): 48%; Activity (Rattus norvegicus [13]): -16%; inhibition at 100 µM (Liver [14]): 57%; Activity (Rattus norvegicus [15]): -22%; Activity (Rattus norvegicus [16]): -53%; Activity (Rattus norvegicus [17]): 19%; Activity (Rattus norvegicus [18]): -21%; Activity (Rattus norvegicus [19]): 6%
COC(=O)CCc1ccc(OCc2ccccc2)cc1	-3	-16	–	18	-45	–	3	–
CCOC(=O)CCCCCc1ccc(OCc2ccccc2)cc1	-7	-38	–	21	-83	–	32	–
CCOC(=O)c1ccc(COc2ccccc2)cc1	8	-25	–	26	-38	–	3	–
CCOC(=O)c1ccc(COc2ccc(C)cc2)cc1	5	-20	–	4	-41	–	13	–
CCOC(=O)C(C)(C)Oc1ccc(Cl)cc1 [CLOFIBRATE]	0	-23	–	32	-31	–	3	–
CCCC(C(=O)OCCN(CC)CC)(c1ccccc1)c1ccccc1 [PROADIFEN HYDROCHLORIDE]	–	–	86	–	–	62	–	–

Source: ChEMBL document CHEMBL3272121, “Hypolipidemic analogues of ethyl 4-benzyloxybenzoate” (J Med Chem, 1977)
